Results reported in PMC11167047 (Cell Death Discovery, 2024).

What was measured:
Assay in all cases: kinome screen (33PanQinase)
Type in all cases: biochemical
RPS6KA5 = biological target: T1, RPS6KA5 (Homo sapiens, UniProt O75582)
T1 construct: purchased Reaction Biology Europe GmbH (formerly ProQinase)
Description: (§1) The Kinome Screening was performed by Reaction Biology Europe GmbH (http://reactionbiology.com; Freiburg i. Br., Germany).

CK1γ1 = biological target: T2, CK1γ1 (Homo sapiens, UniProt Q9HCP0)
T2 construct: purchased Reaction Biology Europe GmbH (formerly ProQinase)
T2 sequence (Q9HCP0 whole entry): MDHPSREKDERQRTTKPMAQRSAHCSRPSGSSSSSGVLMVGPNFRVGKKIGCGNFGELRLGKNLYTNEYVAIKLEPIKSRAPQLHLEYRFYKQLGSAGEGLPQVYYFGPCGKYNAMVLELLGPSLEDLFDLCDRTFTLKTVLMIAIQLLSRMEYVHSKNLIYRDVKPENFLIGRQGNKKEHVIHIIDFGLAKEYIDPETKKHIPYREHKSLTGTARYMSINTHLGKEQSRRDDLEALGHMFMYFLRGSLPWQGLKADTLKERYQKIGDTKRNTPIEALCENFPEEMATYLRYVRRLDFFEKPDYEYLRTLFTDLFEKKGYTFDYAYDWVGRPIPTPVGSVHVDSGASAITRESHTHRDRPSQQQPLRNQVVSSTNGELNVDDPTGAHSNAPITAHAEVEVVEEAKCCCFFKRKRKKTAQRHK
Description: as §1

CDK1/CycA2 = biological target: T3, CDK1/CycA2 (Homo sapiens, UniProt P06493)
T3 construct: purchased Reaction Biology Europe GmbH (formerly ProQinase)
T3 sequence (P06493 whole entry): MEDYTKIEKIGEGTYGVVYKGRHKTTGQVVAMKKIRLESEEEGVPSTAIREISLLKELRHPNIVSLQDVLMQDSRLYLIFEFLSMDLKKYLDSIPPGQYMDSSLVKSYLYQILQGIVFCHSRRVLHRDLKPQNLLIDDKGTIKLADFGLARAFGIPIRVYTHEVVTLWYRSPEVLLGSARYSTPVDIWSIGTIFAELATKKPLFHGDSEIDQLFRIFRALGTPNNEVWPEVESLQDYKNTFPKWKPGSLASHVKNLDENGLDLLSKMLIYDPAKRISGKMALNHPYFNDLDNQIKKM
T3 sequence (P20248 whole entry partner): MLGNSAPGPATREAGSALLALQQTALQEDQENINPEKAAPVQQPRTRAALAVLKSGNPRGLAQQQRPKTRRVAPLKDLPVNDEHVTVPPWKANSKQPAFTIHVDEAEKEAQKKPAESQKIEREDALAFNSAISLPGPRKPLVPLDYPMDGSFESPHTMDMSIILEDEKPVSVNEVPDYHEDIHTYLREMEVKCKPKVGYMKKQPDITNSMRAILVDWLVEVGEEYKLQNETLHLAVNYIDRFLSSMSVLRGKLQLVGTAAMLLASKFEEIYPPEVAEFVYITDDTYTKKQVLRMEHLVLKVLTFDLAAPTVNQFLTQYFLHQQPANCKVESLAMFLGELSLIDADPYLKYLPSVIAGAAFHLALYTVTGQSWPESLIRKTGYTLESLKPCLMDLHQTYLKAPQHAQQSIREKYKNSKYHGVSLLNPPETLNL
Description: as §1

p38β = biological target: T4, p38β (Homo sapiens, UniProt Q15759)
T4 construct: purchased Reaction Biology Europe GmbH (formerly ProQinase)
Description: as §1

SNK = biological target: T5, SNK (Homo sapiens, UniProt Q9NYY3)
T5 construct: purchased Reaction Biology Europe GmbH (formerly ProQinase)
Description: as §1

RAF1 YDYD = biological target: T6, RAF1 YDYD (Homo sapiens, UniProt P04049, Y340D/Y341D)
T6 construct: purchased Reaction Biology Europe GmbH (formerly ProQinase)
T6 sequence (P04049 306-648 Y340D/Y341D limits assumed): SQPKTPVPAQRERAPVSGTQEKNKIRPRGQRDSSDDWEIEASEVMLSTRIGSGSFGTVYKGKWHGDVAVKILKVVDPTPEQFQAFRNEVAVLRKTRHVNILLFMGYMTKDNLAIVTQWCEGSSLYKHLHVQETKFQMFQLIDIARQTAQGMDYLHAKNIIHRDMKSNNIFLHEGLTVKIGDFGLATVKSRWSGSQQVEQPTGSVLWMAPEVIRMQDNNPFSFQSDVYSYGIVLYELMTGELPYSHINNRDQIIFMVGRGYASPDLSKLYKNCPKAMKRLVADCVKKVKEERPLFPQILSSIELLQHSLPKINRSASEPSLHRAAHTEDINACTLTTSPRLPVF
Description: as §1

GRK5 = biological target: T7, GRK5 (Homo sapiens, UniProt P34947)
T7 construct: purchased Reaction Biology Europe GmbH (formerly ProQinase)
T7 sequence (P34947 whole entry): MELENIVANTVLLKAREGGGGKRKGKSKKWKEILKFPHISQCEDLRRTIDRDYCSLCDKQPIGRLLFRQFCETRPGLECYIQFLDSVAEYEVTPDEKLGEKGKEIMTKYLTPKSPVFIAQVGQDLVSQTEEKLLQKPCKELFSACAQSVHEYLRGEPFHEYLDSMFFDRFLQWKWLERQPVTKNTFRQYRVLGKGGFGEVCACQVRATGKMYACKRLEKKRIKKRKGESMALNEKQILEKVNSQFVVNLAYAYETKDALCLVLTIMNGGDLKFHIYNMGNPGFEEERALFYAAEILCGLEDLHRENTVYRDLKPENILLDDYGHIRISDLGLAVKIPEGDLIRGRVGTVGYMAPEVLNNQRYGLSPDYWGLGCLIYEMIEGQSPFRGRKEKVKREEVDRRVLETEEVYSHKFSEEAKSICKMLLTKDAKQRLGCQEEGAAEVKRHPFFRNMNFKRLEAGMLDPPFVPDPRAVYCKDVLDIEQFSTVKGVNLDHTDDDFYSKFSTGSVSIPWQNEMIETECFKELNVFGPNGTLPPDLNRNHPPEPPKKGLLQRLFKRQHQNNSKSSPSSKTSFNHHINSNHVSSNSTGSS
Description: as §1

ZAK = biological target: T8, ZAK (Homo sapiens, UniProt Q9NYL2)
T8 construct: purchased Reaction Biology Europe GmbH (formerly ProQinase)
Description: as §1

DYRK2 = biological target: T9, DYRK2 (Homo sapiens, UniProt Q92630)
T9 construct: purchased Reaction Biology Europe GmbH (formerly ProQinase)
T9 sequence (Q92630 1-601): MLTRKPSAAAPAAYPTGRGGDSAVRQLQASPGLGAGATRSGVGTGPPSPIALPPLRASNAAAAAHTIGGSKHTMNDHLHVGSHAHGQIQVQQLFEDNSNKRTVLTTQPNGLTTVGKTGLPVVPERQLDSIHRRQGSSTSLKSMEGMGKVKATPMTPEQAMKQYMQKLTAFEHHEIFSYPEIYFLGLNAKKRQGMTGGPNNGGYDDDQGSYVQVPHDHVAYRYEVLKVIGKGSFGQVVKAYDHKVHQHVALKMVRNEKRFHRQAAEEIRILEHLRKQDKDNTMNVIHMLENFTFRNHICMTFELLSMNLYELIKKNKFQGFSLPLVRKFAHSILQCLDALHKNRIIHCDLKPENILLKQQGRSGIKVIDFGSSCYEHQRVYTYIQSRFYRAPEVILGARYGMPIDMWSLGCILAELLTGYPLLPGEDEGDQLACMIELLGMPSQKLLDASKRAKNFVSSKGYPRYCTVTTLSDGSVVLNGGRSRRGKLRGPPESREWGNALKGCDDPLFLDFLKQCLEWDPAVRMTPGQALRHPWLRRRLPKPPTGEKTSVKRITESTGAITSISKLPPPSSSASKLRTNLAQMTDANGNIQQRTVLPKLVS
Description: as §1

CK1ε = biological target: T10, CK1ε (Homo sapiens, UniProt P49674)
T10 construct: purchased Reaction Biology Europe GmbH (formerly ProQinase)
T10 sequence (P49674 whole entry): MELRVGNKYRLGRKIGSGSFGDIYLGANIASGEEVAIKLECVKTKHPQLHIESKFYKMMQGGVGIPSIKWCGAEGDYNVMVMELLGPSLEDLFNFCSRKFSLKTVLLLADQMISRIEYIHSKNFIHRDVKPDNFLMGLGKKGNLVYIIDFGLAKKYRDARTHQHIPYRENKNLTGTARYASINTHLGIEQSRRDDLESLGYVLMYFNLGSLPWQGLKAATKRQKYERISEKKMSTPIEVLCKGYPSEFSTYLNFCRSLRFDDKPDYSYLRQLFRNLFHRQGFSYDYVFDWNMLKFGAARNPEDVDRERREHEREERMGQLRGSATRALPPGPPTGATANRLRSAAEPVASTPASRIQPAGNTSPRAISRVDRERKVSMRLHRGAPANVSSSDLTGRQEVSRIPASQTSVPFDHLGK
Description: as §1

INSR = biological target: T11, INSR (Homo sapiens, UniProt P06213)
T11 construct: purchased Reaction Biology Europe GmbH (formerly ProQinase)
T11 sequence (P06213 28-1382): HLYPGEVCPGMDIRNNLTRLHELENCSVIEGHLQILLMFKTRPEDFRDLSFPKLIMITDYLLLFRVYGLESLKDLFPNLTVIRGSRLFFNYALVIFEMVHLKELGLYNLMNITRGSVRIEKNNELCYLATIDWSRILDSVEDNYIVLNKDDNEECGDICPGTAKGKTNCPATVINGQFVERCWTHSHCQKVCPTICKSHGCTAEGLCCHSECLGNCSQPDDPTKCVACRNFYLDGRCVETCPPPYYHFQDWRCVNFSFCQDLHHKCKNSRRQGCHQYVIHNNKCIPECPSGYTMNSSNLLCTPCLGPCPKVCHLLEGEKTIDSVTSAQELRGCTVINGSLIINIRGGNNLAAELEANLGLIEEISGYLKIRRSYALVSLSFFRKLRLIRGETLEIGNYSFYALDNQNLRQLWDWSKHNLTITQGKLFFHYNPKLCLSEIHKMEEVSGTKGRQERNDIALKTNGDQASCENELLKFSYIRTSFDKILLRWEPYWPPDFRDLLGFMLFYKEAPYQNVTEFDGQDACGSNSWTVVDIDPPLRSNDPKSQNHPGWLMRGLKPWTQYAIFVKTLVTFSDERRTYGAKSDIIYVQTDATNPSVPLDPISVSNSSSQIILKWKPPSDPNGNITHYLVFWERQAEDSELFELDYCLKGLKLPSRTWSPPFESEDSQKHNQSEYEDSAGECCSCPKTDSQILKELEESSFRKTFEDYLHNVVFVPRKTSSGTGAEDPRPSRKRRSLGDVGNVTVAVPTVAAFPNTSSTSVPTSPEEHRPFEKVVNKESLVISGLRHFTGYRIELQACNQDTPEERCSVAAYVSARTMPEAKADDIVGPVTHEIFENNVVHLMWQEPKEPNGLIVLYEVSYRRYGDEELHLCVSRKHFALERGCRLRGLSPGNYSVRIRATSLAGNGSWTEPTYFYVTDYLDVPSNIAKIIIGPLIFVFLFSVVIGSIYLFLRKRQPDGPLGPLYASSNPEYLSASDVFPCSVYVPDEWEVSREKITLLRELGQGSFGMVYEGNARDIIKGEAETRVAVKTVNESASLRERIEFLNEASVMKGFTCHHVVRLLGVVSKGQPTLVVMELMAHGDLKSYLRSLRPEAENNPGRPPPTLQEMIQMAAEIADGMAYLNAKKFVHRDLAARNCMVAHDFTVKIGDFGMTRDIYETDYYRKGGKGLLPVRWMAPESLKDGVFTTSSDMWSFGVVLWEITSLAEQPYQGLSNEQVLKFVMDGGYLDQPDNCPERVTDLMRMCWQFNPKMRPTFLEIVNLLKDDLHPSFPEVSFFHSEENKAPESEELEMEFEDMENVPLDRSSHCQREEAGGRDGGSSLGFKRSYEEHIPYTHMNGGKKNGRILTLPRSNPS
Description: as §1

DAPK3 = biological target: T12, DAPK3 (Homo sapiens, UniProt O43293)
T12 construct: purchased Reaction Biology Europe GmbH (formerly ProQinase)
T12 sequence (O43293 whole entry): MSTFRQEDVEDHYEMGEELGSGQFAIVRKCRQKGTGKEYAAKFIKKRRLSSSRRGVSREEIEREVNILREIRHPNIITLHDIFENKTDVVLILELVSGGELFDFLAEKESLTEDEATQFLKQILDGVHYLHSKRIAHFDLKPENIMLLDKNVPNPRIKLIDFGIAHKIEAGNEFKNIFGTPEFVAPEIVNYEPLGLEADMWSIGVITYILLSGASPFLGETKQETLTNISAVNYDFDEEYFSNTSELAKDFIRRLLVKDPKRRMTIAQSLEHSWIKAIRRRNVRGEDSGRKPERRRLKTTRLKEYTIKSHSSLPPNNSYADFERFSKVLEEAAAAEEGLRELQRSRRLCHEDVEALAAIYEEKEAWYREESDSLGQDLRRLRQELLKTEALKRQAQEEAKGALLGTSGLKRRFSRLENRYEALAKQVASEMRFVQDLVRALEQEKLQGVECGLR
Description: as §1

PKCν = biological target: T13, PKCν (Homo sapiens, UniProt O94806)
T13 construct: purchased Reaction Biology Europe GmbH (formerly ProQinase)
T13 sequence (O94806 1-890): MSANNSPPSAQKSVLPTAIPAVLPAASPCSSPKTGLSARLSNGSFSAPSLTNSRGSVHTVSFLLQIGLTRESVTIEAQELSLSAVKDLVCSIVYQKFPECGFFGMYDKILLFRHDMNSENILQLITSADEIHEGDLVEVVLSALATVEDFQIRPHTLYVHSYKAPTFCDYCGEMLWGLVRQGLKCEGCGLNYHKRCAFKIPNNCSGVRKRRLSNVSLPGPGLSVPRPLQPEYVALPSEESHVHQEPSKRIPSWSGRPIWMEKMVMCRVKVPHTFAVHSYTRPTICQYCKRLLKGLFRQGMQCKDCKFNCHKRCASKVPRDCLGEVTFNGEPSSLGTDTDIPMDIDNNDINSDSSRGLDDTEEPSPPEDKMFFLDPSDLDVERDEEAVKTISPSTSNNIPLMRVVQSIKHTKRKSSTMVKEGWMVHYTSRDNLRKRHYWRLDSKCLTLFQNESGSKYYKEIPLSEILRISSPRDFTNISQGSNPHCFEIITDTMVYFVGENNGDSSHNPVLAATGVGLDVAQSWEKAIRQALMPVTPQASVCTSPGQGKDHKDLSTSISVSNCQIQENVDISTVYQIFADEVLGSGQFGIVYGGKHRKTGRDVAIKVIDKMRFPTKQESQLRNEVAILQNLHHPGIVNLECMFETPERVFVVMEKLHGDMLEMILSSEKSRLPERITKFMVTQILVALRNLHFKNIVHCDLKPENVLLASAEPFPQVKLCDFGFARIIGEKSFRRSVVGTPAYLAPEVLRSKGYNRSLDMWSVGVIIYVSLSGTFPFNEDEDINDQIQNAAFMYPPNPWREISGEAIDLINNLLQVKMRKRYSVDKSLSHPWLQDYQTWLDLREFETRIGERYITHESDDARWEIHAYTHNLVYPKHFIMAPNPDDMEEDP
Description: as §1

SRC = biological target: T14, SRC (Homo sapiens, UniProt P12931)
T14 construct: purchased Reaction Biology Europe GmbH (formerly ProQinase)
Description: as §1

CAMK2A = biological target: T15, CAMK2A (Homo sapiens, UniProt Q9UQM7)
T15 construct: purchased Reaction Biology Europe GmbH (formerly ProQinase)
Description: as §1

CAMK2D = biological target: T16, CAMK2D (Homo sapiens, UniProt Q13557)
T16 construct: purchased Reaction Biology Europe GmbH (formerly ProQinase)
Description: as §1

CDK20/CycH = biological target: T17, CDK20/CycH (Homo sapiens, UniProt Q8IZL9)
T17 construct: purchased Reaction Biology Europe GmbH (formerly ProQinase)
T17 sequence (Q8IZL9 whole entry): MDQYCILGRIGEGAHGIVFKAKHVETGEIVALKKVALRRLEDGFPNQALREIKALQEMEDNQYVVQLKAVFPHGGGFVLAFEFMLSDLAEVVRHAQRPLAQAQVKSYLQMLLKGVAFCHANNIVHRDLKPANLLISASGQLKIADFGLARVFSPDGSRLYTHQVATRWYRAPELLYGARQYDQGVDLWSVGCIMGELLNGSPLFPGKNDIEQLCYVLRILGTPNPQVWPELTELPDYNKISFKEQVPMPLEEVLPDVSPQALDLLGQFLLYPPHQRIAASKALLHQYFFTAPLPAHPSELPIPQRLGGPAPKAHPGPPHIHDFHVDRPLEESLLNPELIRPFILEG
T17 sequence (P51946 whole entry partner): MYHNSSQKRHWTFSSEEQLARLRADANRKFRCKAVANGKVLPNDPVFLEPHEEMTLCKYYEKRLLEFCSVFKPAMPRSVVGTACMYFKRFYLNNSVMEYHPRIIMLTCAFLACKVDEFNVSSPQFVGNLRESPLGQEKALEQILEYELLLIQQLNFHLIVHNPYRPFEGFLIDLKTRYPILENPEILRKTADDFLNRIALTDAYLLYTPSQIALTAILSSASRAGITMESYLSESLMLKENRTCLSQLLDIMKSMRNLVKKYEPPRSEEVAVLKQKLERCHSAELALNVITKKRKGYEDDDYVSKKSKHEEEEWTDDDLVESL
Description: as §1

FES = biological target: T18, FES (Homo sapiens, UniProt P07332)
T18 construct: purchased Reaction Biology Europe GmbH (formerly ProQinase)
Description: as §1

MAP4K4 = biological target: T19, MAP4K4 (Homo sapiens, UniProt O95819)
T19 construct: purchased Reaction Biology Europe GmbH (formerly ProQinase)
Description: as §1

COc1ccnc2[nH]cc(-c3cc(N)nc(N)c3)c12 [meriolin 16]
residual kinase activity (RPS6KA5; 0.03 µM): 89 % of control
residual kinase activity (RPS6KA5; 0.3 µM): 82 % of control
residual kinase activity (CK1γ1; 0.03 µM): 87 % of control
residual kinase activity (CK1γ1; 0.3 µM): 38 % of control
residual kinase activity (CDK1/CycA2; 0.03 µM): 32 % of control
residual kinase activity (CDK1/CycA2; 0.3 µM): 5 % of control
residual kinase activity (p38β; 0.03 µM): 79 % of control
residual kinase activity (p38β; 0.3 µM): 88 % of control
residual kinase activity (SNK; 0.03 µM): 96 % of control
residual kinase activity (SNK; 0.3 µM): 98 % of control
residual kinase activity (RAF1 YDYD; 0.03 µM): 77 % of control
residual kinase activity (RAF1 YDYD; 0.3 µM): 96 % of control
residual kinase activity (GRK5; 0.03 µM): 118 % of control
residual kinase activity (GRK5; 0.3 µM): 91 % of control
residual kinase activity (ZAK; 0.03 µM): 96 % of control
residual kinase activity (ZAK; 0.3 µM): 83 % of control
residual kinase activity (DYRK2; 0.03 µM): 6 % of control
residual kinase activity (DYRK2; 0.3 µM): 1 % of control
residual kinase activity (CK1ε; 0.03 µM): 112 % of control
residual kinase activity (CK1ε; 0.3 µM): 41 % of control
residual kinase activity (INSR; 0.03 µM): 96 % of control
residual kinase activity (INSR; 0.3 µM): 91 % of control
residual kinase activity (DAPK3; 0.03 µM): 98 % of control
residual kinase activity (DAPK3; 0.3 µM): 51 % of control
residual kinase activity (PKCν; 0.03 µM): 89 % of control
residual kinase activity (PKCν; 0.3 µM): 32 % of control
residual kinase activity (SRC; 0.03 µM): 95 % of control
residual kinase activity (SRC; 0.3 µM): 86 % of control
residual kinase activity (CAMK2A; 0.03 µM): 103 % of control
residual kinase activity (CAMK2A; 0.3 µM): 81 % of control
residual kinase activity (CAMK2D; 0.03 µM): 99 % of control
residual kinase activity (CAMK2D; 0.3 µM): 64 % of control
residual kinase activity (CDK20/CycH; 0.03 µM): 38 % of control
residual kinase activity (CDK20/CycH; 0.3 µM): 33 % of control
residual kinase activity (FES; 0.03 µM): 93 % of control
residual kinase activity (FES; 0.3 µM): 87 % of control
residual kinase activity (MAP4K4; 0.03 µM): 76 % of control
residual kinase activity (MAP4K4; 0.3 µM): 29 % of control

c1ccc(CNc2cc(-c3c[nH]c4ncccc34)ccn2)cc1 [meriolin 36]
residual kinase activity (RPS6KA5; 0.3 µM): 46 % of control
residual kinase activity (RPS6KA5; 3 µM): 15 % of control
residual kinase activity (CK1γ1; 0.3 µM): 23 % of control
residual kinase activity (CK1γ1; 3 µM): 3 % of control
residual kinase activity (CDK1/CycA2; 0.3 µM): 2 % of control
residual kinase activity (CDK1/CycA2; 3 µM): 1 % of control
residual kinase activity (p38β; 0.3 µM): 77 % of control
residual kinase activity (p38β; 3 µM): 84 % of control
residual kinase activity (SNK; 0.3 µM): 94 % of control
residual kinase activity (SNK; 3 µM): 43 % of control
residual kinase activity (RAF1 YDYD; 0.3 µM): 67 % of control
residual kinase activity (RAF1 YDYD; 3 µM): 67 % of control
residual kinase activity (GRK5; 0.3 µM): 119 % of control
residual kinase activity (GRK5; 3 µM): 74 % of control
residual kinase activity (ZAK; 0.3 µM): 57 % of control
residual kinase activity (ZAK; 3 µM): 14 % of control
residual kinase activity (DYRK2; 0.3 µM): 31 % of control
residual kinase activity (DYRK2; 3 µM): 4 % of control
residual kinase activity (CK1ε; 0.3 µM): 86 % of control
residual kinase activity (CK1ε; 3 µM): 23 % of control
residual kinase activity (INSR; 0.3 µM): 82 % of control
residual kinase activity (INSR; 3 µM): 36 % of control
residual kinase activity (DAPK3; 0.3 µM): 80 % of control
residual kinase activity (DAPK3; 3 µM): 25 % of control
residual kinase activity (PKCν; 0.3 µM): 62 % of control
residual kinase activity (PKCν; 3 µM): 17 % of control
residual kinase activity (SRC; 0.3 µM): 88 % of control
residual kinase activity (SRC; 3 µM): 24 % of control
residual kinase activity (CAMK2A; 0.3 µM): 26 % of control
residual kinase activity (CAMK2A; 3 µM): 2 % of control
residual kinase activity (CAMK2D; 0.3 µM): 16 % of control
residual kinase activity (CAMK2D; 3 µM): 1 % of control
residual kinase activity (CDK20/CycH; 0.3 µM): 29 % of control
residual kinase activity (CDK20/CycH; 3 µM): 13 % of control
residual kinase activity (FES; 0.3 µM): 83 % of control
residual kinase activity (FES; 3 µM): 50 % of control
residual kinase activity (MAP4K4; 0.3 µM): 6 % of control
residual kinase activity (MAP4K4; 3 µM): 2 % of control
